From ChEMBL document CHEMBL1201862, “PubChem BioAssay data set” (2004)
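Five concentrations, 48 hours, 96-well plates. GI50 marks 50% less growth.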 Active and inactive are the calls of the source. Rule as the data show it: active = GI50 up to about 1.1 µM and inactive = higher.

Assays:
Experiment in all cases: NCI anticancer screen, dose series, 48 h
[1] = test system: SK-MEL-28
[2] = test system: IGROV-1
[3] = test system: SF-295
[4] = test system: COLO 205
[5] = test system: NCI-H522
[6] = test system: HL-60
[7] = test system: RPMI-8226
[8] = test system: NCI-H23
[9] = test system: 786-0
[10] = test system: A549
[11] = test system: K562
[12] = test system: SW-620
[13] = test system: HOP-62
[14] = test system: SF-268
[15] = test system: NCI-H226
[16] = test system: TK-10
[17] = test system: CAKI-1

Measured: GI50

O=C1c2ccccc2N2OC3(N4CCOCC4)CCCC3C12c1ccccc1 (configuration not stated)
inactive: [1] > 100 µM | [2] > 100 µM | [3] > 100 µM | [4] > 100 µM | [5] 86.1 µM | [6] 77.1 µM | [7] > 100 µM | [8] > 100 µM | [9] > 100 µM | [10] > 100 µM | [11] > 100 µM | [12] > 100 µM | [13] > 100 µM | [14] > 100 µM | [15] > 100 µM

COc1ccc(OC)c(NC(=O)C(=O)C(C(C)=O)c2nc3ccc(Cl)cc3nc2O)c1 (configuration not stated)
inactive: [1] > 50 µM | [16] > 50 µM | [17] > 50 µM | [2] > 50 µM | [3] > 50 µM | [4] > 50 µM | [6] > 50 µM | [7] > 50 µM | [8] > 50 µM | [9] > 50 µM | [10] > 50 µM | [11] > 50 µM | [12] > 50 µM | [13] > 50 µM | [14] > 50 µM | [15] > 50 µM

[N-]=[N+]=Nc1nnc(CCCCc2nnc(N=[N+]=[N-])o2)o1
inactive: [1] > 100 µM | [16] > 100 µM | [3] > 100 µM | [4] > 100 µM | [5] > 100 µM | [8] > 100 µM | [9] > 100 µM | [10] > 100 µM | [11] > 100 µM | [12] > 100 µM | [13] > 100 µM | [14] > 100 µM | [15] > 100 µM

COC(=O)C(=O)C(C(C)=O)C(=O)NCc1ccc(OC)c(OC)c1 (configuration not stated)
inactive: [1] > 100 µM | [16] > 100 µM | [17] > 100 µM | [2] > 100 µM | [3] > 100 µM | [4] > 100 µM | [5] > 100 µM | [6] > 100 µM | [8] > 100 µM | [9] > 100 µM | [10] > 100 µM | [11] > 100 µM | [12] 40.5 µM | [13] > 100 µM | [14] > 100 µM | [15] > 100 µM

CC1(C)OC2C(=O)OC(COCc3ccccc3)C2O1 (configuration not stated)
inactive: [1] > 100 µM | [16] > 100 µM | [17] > 100 µM | [2] > 100 µM | [3] > 100 µM | [4] > 100 µM | [6] > 100 µM | [7] > 100 µM | [8] > 100 µM | [9] > 100 µM | [10] > 100 µM | [11] > 100 µM | [12] > 100 µM | [13] > 100 µM | [14] > 100 µM | [15] > 100 µM

CN/N=C(\C(=O)Nc1ccc(C(F)(F)F)cc1[N+](=O)[O-])C(c1cnc2ccc([N+](=O)[O-])cc2n1)[N+](=O)[O-] (configuration not stated)
inactive: [1] > 100 µM | [17] 14.3 µM | [2] > 100 µM | [3] 37.7 µM | [4] 28.6 µM | [5] 6.84 µM | [7] 38.2 µM | [8] 62.7 µM | [9] 32.4 µM | [10] 28 µM | [11] 8.79 µM | [12] 46 µM | [13] 33 µM | [14] 73.3 µM | [15] 17.9 µM

COc1ccc(C2Oc3c(c(O)cc4c3[C@H](c3ccc(O)cc3O)[C@H](O)C(c3ccc(O)c(O)c3)O4)C[C@@H]2O)cc1O (some centres not stated)
inactive: [16] > 100 µM | [17] > 100 µM | [2] > 100 µM | [3] > 100 µM | [4] > 100 µM | [5] > 100 µM | [6] > 100 µM | [7] > 100 µM | [8] > 100 µM | [9] > 100 µM | [10] > 100 µM | [11] > 100 µM | [12] > 100 µM | [13] > 100 µM | [14] > 100 µM | [15] > 100 µM
